From PMC8563752, “An oxidative metabolic pathway of 4-deoxy-L-erythro-5-hexoseulose uronic acid (DEHU) from alginate in an alginate-assimilating bacterium” (Communications Biology, 2021)

Tests used:
[1] = biological target: T1, recFlDet (Flavobacterium sp. UMI-01, UniProt A0A6S6B272); experiment: TBA method (decrease at […] nm), TLC, ESI-MS of product; assay type: biochemical; conditions: […] potassium phosphate pH […] KCl, […] MgCl2, […] °C
T1 construct: full length 237 residues (25,697 Da), C-terminal His-tag (27,394 Da), E. coli BL21(DE3); native tetra- or pentamer; N-terminus […]
T1 sequence (A0A6S6B272 1-237): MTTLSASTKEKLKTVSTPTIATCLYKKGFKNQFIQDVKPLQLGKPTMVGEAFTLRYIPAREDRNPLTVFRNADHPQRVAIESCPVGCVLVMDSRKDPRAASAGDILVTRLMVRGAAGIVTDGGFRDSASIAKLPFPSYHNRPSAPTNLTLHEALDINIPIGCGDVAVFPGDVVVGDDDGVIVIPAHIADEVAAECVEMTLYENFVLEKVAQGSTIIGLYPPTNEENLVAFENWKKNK

[2] = system: T2, recFlRed; experiment: NADPH formation by absorbance at […] nm, Michaelis-Menten fit; assay type: biochemical, Flavobacterium sp. UMI-01; conditions: oxidase direction; 5 mM DEHU, 0.15 M KCl, 10 mM sodium phosphate pH 7.4, 20 °C
T2 construct: gene FlRed; native 27 kDa on SDS-PAGE, about 102 kDa on gel filtration, tetramer

[3] = system: T2, recFlRed; experiment: coenzyme consumption by absorbance at […] nm, Michaelis-Menten fit; assay type: biochemical, Flavobacterium sp. UMI-01; conditions: reductase direction; 5 mM DEHU, 0.15 M KCl, 10 mM sodium phosphate pH 7.4, 20 °C
[4] = system: T2, recFlRed; experiment: NADH formation by absorbance at […] nm, Michaelis-Menten fit; assay type: biochemical, Flavobacterium sp. UMI-01; conditions: oxidase direction; 5 mM DEHU, 0.15 M KCl, 10 mM sodium phosphate pH 7.4, 20 °C
[5] = biological target: T3, recFlDeg (Flavobacterium sp. UMI-01, UniProt A0A6S6ASF6); experiment: NADH formation at […] nm; assay type: biochemical; conditions: […] alpha-KGSA, […] potassium phosphate pH […] KCl, […] MgCl2, […] °C
T3 construct: full length, His-tag, E. coli BL21(DE3); calculated mass 57,142 Da; Glu251 and Cys288 conserved
T3 sequence (A0A6S6ASF6 1-515): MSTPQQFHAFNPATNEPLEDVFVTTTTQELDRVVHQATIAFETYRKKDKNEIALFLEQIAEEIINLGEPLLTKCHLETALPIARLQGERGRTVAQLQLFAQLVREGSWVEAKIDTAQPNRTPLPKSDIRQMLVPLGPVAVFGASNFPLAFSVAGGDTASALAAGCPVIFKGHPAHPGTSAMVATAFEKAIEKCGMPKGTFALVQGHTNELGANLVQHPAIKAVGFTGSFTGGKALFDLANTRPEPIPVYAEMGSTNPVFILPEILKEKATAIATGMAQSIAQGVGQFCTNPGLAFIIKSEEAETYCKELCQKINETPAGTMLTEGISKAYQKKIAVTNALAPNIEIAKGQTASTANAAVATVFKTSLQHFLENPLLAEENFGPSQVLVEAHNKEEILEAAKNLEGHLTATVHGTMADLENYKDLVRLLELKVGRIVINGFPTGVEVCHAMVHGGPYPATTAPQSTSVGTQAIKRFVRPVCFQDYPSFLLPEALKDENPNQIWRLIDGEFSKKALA

[6] = system: T2, recFlRed; experiment: NADH consumption by absorbance at […] nm, Michaelis-Menten fit; assay type: biochemical, Flavobacterium sp. UMI-01; conditions: reductase direction; 0.2 mM NADH, 0.15 M KCl, 10 mM sodium phosphate pH 7.4, 20 °C
[7] = biological target: T3, recFlDeg; experiment: NADH formation at […] nm; TLC, ESI-MS and NMR of product; assay type: biochemical; conditions: NAD+, […] potassium phosphate pH […] KCl, […] MgCl2, […] °C

## O=C(O)C(=O)C[C@H](O)[C@H](O)C(=O)O [KDGR]
[1]
  TBA method (decrease at 548 nm), TLC, ESI-MS of product: KDGR was determined to be the sole α-keto acid recognized by recFlDet

## NC(=O)c1ccc[n+]([C@@H]2O[C@H](COP(=O)(O)OP(=O)(O)OC[C@H]3O[C@@H](n4cnc5c(N)ncnc54)[C@H](OP(=O)(O)O)[C@@H]3O)[C@@H](O)[C@H]2O)c1 [NADP^+]
[2]
  Km: 1400 ± 200 µM

## NC(=O)C1=CN([C@@H]2O[C@H](COP(=O)(O)OP(=O)(O)OC[C@H]3O[C@@H](n4cnc5c(N)ncnc54)[C@H](O)[C@@H]3O)[C@@H](O)[C@H]2O)C=CC1 [NADH]
[3]
  Km: 37 ± 2 µM

## NC(=O)C1=CN([C@@H]2O[C@H](COP(=O)(O)OP(=O)(O)OC[C@H]3O[C@@H](n4cnc5c(N)ncnc54)[C@H](OP(=O)(O)O)[C@@H]3O)[C@@H](O)[C@H]2O)C=CC1 [NADPH]
[3]
  Km: 980 ± 100 µM

## NC(=O)c1ccc[n+]([C@@H]2O[C@H](COP(=O)(O)OP(=O)(O)OC[C@H]3O[C@@H](n4cnc5c(N)ncnc54)[C@H](O)[C@@H]3O)[C@@H](O)[C@H]2O)c1 [NAD^+]
[4]
  Km: 98 ± 10 µM
[5]
  NADH formation at 340 nm: recFlDeg preferred NAD^+ to NADP^+

## O=C[C@@H](O)[C@@H](O)CC(=O)C(=O)O [DEHU]
[6]
  Km: 2600 ± 100 µM

## O=CCCC(=O)C(=O)O [α-KGSA]
[7]
  NADH formation at 340 nm; TLC, ESI-MS and NMR of product: FlDeg is the enzyme catalyzing the oxidation of the aldehyde group of α-KGSA
